Some test systems named below: A498; DU-145; HCC 2998; HOP-92; HT-29; KM12; MCF7; MDA-N; NCI-H460; NCI/ADR-RES; OVCAR-3; OVCAR-4; PC-3; RPMI-8226; SK-MEL-28; U-251; OVCAR-8; SK-MEL-2; SK-OV-3; HOP-62.
Assay in all cases: growth of human tumour cells (NCI), 48 h

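Following 48 hours of exposure in 96-well plates, responses at five concentrations were used to interpolate endpoints linearly. GI50 = concentration required for 50% inhibition of growth.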 The source made the active and inactive calls. No stated cut-off is given here; in the data, active = GI50 up to about 1.1 µM and inactive = higher. Residues, ends and D or L forms follow the SMILES beside them.

Consider `NC1CNC(=O)c2cscc21` (stereo not given), for which the GI50 in the assay with A498, with DU-145, in the assay with HCC 2998, in the assay with HOP-92, in the assay with HT-29 and in the assay with KM12 was > 100 µM (inactive) each time. Also, the GI50 is > 100 µM (inactive) with MCF7; > 100 µM (inactive) with MDA-N; > 100 µM (inactive) in the assay with NCI-H460; 3.01 µM (inactive) with NCI/ADR-RES; > 100 µM (inactive) with OVCAR-3; > 100 µM (inactive) in the assay on OVCAR-4. In addition, the GI50 in the assay on PC-3 was 53.2 µM (inactive); in the assay with RPMI-8226 it was > 100 µM (inactive); in the assay with SK-MEL-28 it was > 100 µM (inactive); in the assay with U-251 it was > 100 µM (inactive).

Consider `CC(=O)n1nc(-c2ccccc2)n(/N=C/c2ccc([N+](=O)[O-])cc2)c1=O`, for which the GI50 in the assay on A498 is > 100 µM (inactive); with DU-145, > 100 µM (inactive); in the assay on HCC 2998 it was > 100 µM (inactive); in the assay with HOP-92, 59.3 µM (inactive); in the assay with HT-29, > 100 µM (inactive); with KM12 it was > 100 µM (inactive). Moreover, the GI50 in the assay with MDA-N was > 100 µM (inactive); in the assay with NCI-H460 it was > 100 µM (inactive); with NCI/ADR-RES, > 100 µM (inactive); with OVCAR-3, > 100 µM (inactive); in the assay on OVCAR-4, 41.3 µM (inactive); in the assay with OVCAR-8, 98.2 µM (inactive). For the same compound, the GI50 in the assay with PC-3 is > 100 µM (inactive); in the assay with RPMI-8226, > 100 µM (inactive); in the assay on SK-MEL-28, > 100 µM (inactive); in the assay with SK-MEL-2, > 100 µM (inactive); with SK-OV-3 it was 52.8 µM (inactive); with U-251, > 100 µM (inactive).

Take `CCN(CC)CCCC(C)Nc1ccnc(/C=C/c2ccc(Cl)cc2)c1` (stereo not given): the GI50 with DU-145 is 9.08 µM (inactive); with HCC 2998, 1.95 µM (inactive); in the assay with HOP-62, 1.84 µM (inactive); with HOP-92 it was 1.26 µM (inactive); in the assay on HT-29 it was 3.49 µM (inactive); in the assay with KM12, 2.02 µM (inactive). Further, the GI50 was 2.55 µM (inactive) in the assay on MCF7; 1.83 µM (inactive) in the assay with MDA-N; 2.69 µM (inactive) with NCI-H460; 3.12 µM (inactive) in the assay with NCI/ADR-RES; 1.63 µM (inactive) with OVCAR-3; 3.51 µM (inactive) in the assay with OVCAR-4. In addition, the GI50 is 3.43 µM (inactive) in the assay with OVCAR-8; 1.56 µM (inactive) in the assay with PC-3; 1.72 µM (inactive) in the assay on RPMI-8226; 1.7 µM (inactive) in the assay on SK-MEL-28; 2.11 µM (inactive) with SK-MEL-2; 3.61 µM (inactive) in the assay with SK-OV-3. For the same compound, in the assay with U-251, the GI50 is 1.66 µM (inactive).

In the case of `CCC(C)C(NC(=O)C(CCCCN)NC(=O)C(NC(=O)C(CCC(N)=O)NC(=O)C(N)CCCNC(=N)N)C(C)CC)C(=O)NC(Cc1c[nH]c2ccccc12)C(=O)NC(Cc1ccccc1)C(=O)NC(CCC(N)=O)C(=O)NC(CC(N)=O)C(=O)NC(CCCNC(=N)N)C(=O)NC(CCCNC(=N)N)C(=O)NC(CCSC)C(=O)NC(CCCCN)C(=O)NC(Cc1c[nH]c2ccccc12)C(=O)NC(CCCCN)C(=O)NC(CCCCN)C(=O)N1CCCC1C(=O)NC(C)C(=O)NC(CCCCN)C(=O)NC(CCCNC(=N)N)C(=O)NC(CCCCN)C(=O)NC(CC(C)C)C(=O)NC(Cc1ccccc1)C(=O)NCC(=O)O` (stereo not given) (H-RQIKIWFQNRRMKWKKPAKRKLFG-OH; configuration not given here), the GI50 is > 25 µM (inactive) in the assay with DU-145; > 25 µM (inactive) in the assay on HCC 2998; > 25 µM (inactive) in the assay on HOP-62; 9.64 µM (inactive) in the assay with HOP-92; > 25 µM (inactive) in the assay on HT-29; 9.31 µM (inactive) with KM12. Also, the GI50 in the assay with MCF7 is > 25 µM (inactive); with MDA-N, > 25 µM (inactive); in the assay with NCI-H460, 24.7 µM (inactive); in the assay with NCI/ADR-RES, > 25 µM (inactive); in the assay with OVCAR-3, > 25 µM (inactive); in the assay with OVCAR-4 it was > 25 µM (inactive). The GI50 in the assay with OVCAR-8 is > 25 µM (inactive); in the assay with PC-3, > 25 µM (inactive); with RPMI-8226, 5.93 µM (inactive); in the assay on SK-MEL-28, > 25 µM (inactive); in the assay on SK-MEL-2, > 25 µM (inactive); in the assay with SK-OV-3 it was > 25 µM (inactive). In the assay with U-251, the GI50 was 17 µM (inactive).

On to `COc1cc(/C=C2/C(=O)N/C(=N\C(C)=O)N2C)ccc1OC(C)=O`, for which the GI50 in the assay on DU-145, in the assay on HCC 2998, in the assay on HOP-62, in the assay with HOP-92, in the assay with HT-29 and with KM12 was > 100 µM (inactive) in each case. Besides, the GI50 in the assay with MCF7, in the assay with MDA-N, in the assay with NCI-H460, in the assay with NCI/ADR-RES, in the assay on OVCAR-3 and with OVCAR-4 was > 100 µM (inactive) in each case. Also, the GI50 with OVCAR-8, with PC-3, in the assay on SK-MEL-28, in the assay with SK-MEL-2, in the assay with SK-OV-3 and with U-251 was > 100 µM (inactive) in each case.

In the case of `Nc1ccccc1CC(O)C(=O)O` (stereo not given), the GI50 with A498, with DU-145, in the assay with HCC 2998, in the assay with HOP-62, with HOP-92 and in the assay on HT-29 was > 100 µM (inactive) throughout. In addition, the GI50 in the assay on KM12, with MCF7, with MDA-N, in the assay with NCI-H460, in the assay on NCI/ADR-RES and in the assay on OVCAR-3 was > 100 µM (inactive) in each case. In addition, the GI50 in the assay with OVCAR-8, with PC-3, with RPMI-8226, in the assay on SK-MEL-28, with SK-OV-3 and in the assay on U-251 was > 100 µM (inactive) throughout.

Consider `CC1(C)OC2[C@@H](CO[C@@]3([C@H]4OC(C)(C)O[C@@H]4CO)OC(C)(C)O[C@@H]23)O1` (stereo not given in full), for which the GI50 in the assay on DU-145, with HCC 2998, in the assay on HOP-62, in the assay with HOP-92, in the assay with HT-29 and in the assay on KM12 was > 100 µM (inactive) in each case. Besides, the GI50 in the assay on MCF7, in the assay with MDA-N, with NCI-H460, in the assay with NCI/ADR-RES, in the assay with OVCAR-3 and in the assay with OVCAR-4 was > 100 µM (inactive) throughout. Besides, the GI50 in the assay on OVCAR-8, in the assay on PC-3, in the assay on RPMI-8226, in the assay on SK-MEL-28, in the assay with SK-MEL-2 and in the assay with SK-OV-3 was > 100 µM (inactive) throughout. For the same compound, the GI50 in the assay with U-251 is > 100 µM (inactive).

In the case of `C[C@]12CC[C@H](O)C[C@@H]1CC[C@@H]1[C@@H]2CC[C@]2(C)[C@@H](C3=CC(=O)OC3)CC[C@]12O`, the GI50 in the assay on A498 was 4.5 µM (inactive); in the assay with DU-145, 1.49 µM (inactive); in the assay with HCC 2998, 3.05 µM (inactive); in the assay on HOP-62 it was 1.6 µM (inactive); in the assay on HOP-92, 5.42 µM (inactive); with HT-29, 3.44 µM (inactive). For the same compound, the GI50 in the assay on KM12 is 5.81 µM (inactive); in the assay with MDA-N, 2.02 µM (inactive); in the assay on NCI-H460, 0.673 µM (active); with NCI/ADR-RES it was 2.07 µM (inactive); in the assay on OVCAR-3, 3.12 µM (inactive); in the assay with OVCAR-4, 2.08 µM (inactive). Moreover, the GI50 in the assay with OVCAR-8 was 3.08 µM (inactive); with PC-3 it was 2.58 µM (inactive); in the assay with RPMI-8226, 4.21 µM (inactive); in the assay on SK-MEL-28, 7.5 µM (inactive); in the assay with SK-MEL-2 it was 3.33 µM (inactive); with SK-OV-3, 3.21 µM (inactive). Further, the GI50 in the assay with U-251 is 3.73 µM (inactive).

Consider `COc1nc(=O)n(C2CC(N=[N+]=[N-])C(CO)O2)cc1C` (stereo not given), for which the GI50 with DU-145, with HOP-62, with HOP-92, in the assay on HT-29, with KM12 and in the assay with MCF7 was > 100 µM (inactive) in each case. Further, the GI50 in the assay on MDA-N, in the assay on NCI-H460, with NCI/ADR-RES, with OVCAR-3, with OVCAR-4 and in the assay on OVCAR-8 was > 100 µM (inactive) in each case. The GI50 in the assay on PC-3, with SK-MEL-28, in the assay with SK-MEL-2 and with U-251 was > 100 µM (inactive) in each case.

Take `CCOc1ccccc1/C=C1\NC(=O)N(/C=C2\C(=O)Oc3ccccc3C2=O)C1=O`: the GI50 with DU-145 is 44.5 µM (inactive); with HCC 2998, 74 µM (inactive); with HOP-62, 53.1 µM (inactive); in the assay with HOP-92, 21 µM (inactive); with HT-29, 65.5 µM (inactive); in the assay with KM12 it was 43 µM (inactive). Further, the GI50 with MCF7 is 46.2 µM (inactive); with MDA-N, 42 µM (inactive); in the assay on NCI-H460, 39.4 µM (inactive); in the assay with NCI/ADR-RES it was 46 µM (inactive); with OVCAR-3, 30.8 µM (inactive); in the assay on OVCAR-4, 44.2 µM (inactive). In addition, the GI50 in the assay with OVCAR-8 is 80.9 µM (inactive); with PC-3, 42.5 µM (inactive); in the assay with SK-MEL-28 it was 62.4 µM (inactive); with SK-MEL-2, 45.9 µM (inactive); with SK-OV-3, 59.7 µM (inactive); in the assay on U-251, 47 µM (inactive).

Source of the values: ChEMBL document CHEMBL1201862, “PubChem BioAssay data set” (2004).
